Assay results taken from US6809101B2, “Compounds having anti-hepatitis C virus effect” (priority 2000, dated 2004).
Where two headings read alike, the source gives them in different places.

Legend:
[1] = molecular target: T1, RNA-dependent RNA polymerase (RdRp) of bovine virus diarrhea virus (BVDV) (Bovine viral diarrhea virus, UniProt P19711); assay: Inhibitory activity against BVDV RNA-dependent RNA polymerase (Experiment Example 2); assay type: biochemical; details: Experimental example 2; same way as experiment example 1
T1 construct: RNA-dependent RNA polymerase (RdRp) of bovine virus diarrhea virus (BVDV)
Source text: Inhibitory Activity Against BVDV RNA-Dependent RNA Polymerase
Inhibitory activity against RNA-dependent RNA polymerase (RdRp) of bovine virus diarrhea virus (BVDV) was experimented too in the same way in experiment example 1.

[2] = molecular target: HCV RNA-dependent RNA polymerase (UniProt P27958); assay: Inhibitory activity against HCV RNA-dependent RNA polymerase (Experiment Example 1); assay type: biochemical, hepatitis C virus (HCV); details: Experimental example 1, poly(A) template, oligo(U)12 primer, 3H-UTP substrate, enzyme reaction 25° C. for 30 min
Source text: Inhibitory Activity Against HCV RNA-Dependent RNA Polymerase
(1) Preparation of Hepatitis C Virus (HCV) RNA-Dependent RNA Polymerase
It was collected several cDNA clones of HCV RNA-dependent RNA polymerase from plasma of people infected with HCV, RNA-dependent RNA polymerase was expressed by using insect cell or E. coli from these clones. RNA-dependent RNA polymerase in cell extract was purified by anion-exchange chromatography, heparin-affinity chromatography, poly U-affinity chromatography, cation-exchange chromatography, gel filtration chromatography, and the like. The preparation was done at about 4° C. under low temperature condition, as solution dissolving enzyme was used Tris buffer (pH 7.5) containing ethylenediamine tetraacetic acid (1 mM), dithiothreitol (10 mM), and glycerol (20%). The purified enzyme was kept at 4° C. or −20° C. until it was used for assay.
(2) Method of HCV RNA-Dependent RNA Polymerase Assay
(1) In polypropylene vessel was added buffer I*^1)(10.5 μL) containing Tris-HCl (100 mM, pH 7.5), magnesium chloride (25 mM), dithiothreitol (5 mM), potassium chloride (125 mM), ethylenediamine tetraacetic acid (5 mM), and then were added poly(A)*^2) aqueous solution (100 μg/mL, 10.5 μL), oligo(U)12*^3) aqueous solution (10 μg/mL, 10.5 μL), and water (8 μL), and the mixture was mixed slowly.
*1) All of water used as experimental material in enzyme reaction were carried out inactivation treatment of Rnase with diethylpyrocarbonate. The inactivation treatment with diethylpyrocarbonate was carried out as follows, 1) diethylpyrocarbonate (0.1 g) was dissolved in de-ionized water (100 mL), 2) the solution was stood at 37° C. for 24 h, 3) kept in autoclave at 120° C. for 30 min.
*2) Poly(A) is single strand polynucleotide composed with only adenylic acid. It was used as template.
*3) Oligo(U)12 is single strand oligonucleotide composed with only 12 element of uridylic acid. It was used as primer.
(2) Next, to the mixture was added a solution (10.5 μL) of RNA-dependent RNA polymerase, and preincubation was carried out at 25° C. for 60 min.
(3) A solution (50 μL) preincubated described in (2) was added into 96-wells microtiter plate divided test compound (5.26 μL per well) dissolved with dimethylsulfoxide or water.
*4) UTP is uridine triphosphate. It was used as substrate.
(5) When the enzyme reaction was passed for 30 min, to the mixture was added a aqueous solution (50 mM, 50 μL) of ethylenediamine tetraacetic acid disodium and the enzyme reaction was stopped.
(6) Next, after all volume of sample of (5) was transferred on filter introduced diethylaminoethyl group (henceforth shortening as DEAE-filter mat) by using cell harvester, was carried the washing twice with sodium phosphate buffer (0.25 M, pH 7.0) for 10 sec and the washing once with deionized water for 10 sec.
(7) After the washing, DEAE-filter mat was dried at 95° C. for 15 min and sealed together with liquid scintillator (10 mL) into sample bag.
(8) Radioactivity was measured by using scintillation counter.
(9) The percentage of inhibition was calculated by replacing the measured value of radioactivity (unit; ccpm) into the following expression.
The percentage of inhibition=100−(the measured value in presence of test compound−the measured value in absence of enzyme)÷(the measured value in absence of test compound−the measured value in absence of enzyme)×100.
(10) The concentration of test compound inhibiting 50% (IC50) was obtained from the percentage of inhibition calculated in (9) and the used concentration of test compound inhibiting.
In case of the percentage of inhibition is A % when α μg/mL of the compound is used and the percentage of inhibition is B % when β μg/ml of the compound is used, IC50 was obtained from the following expression. Provided that it is theorized as A≧50>B. […]

[3] = read-out: IC50 for HCV RdRp (converted)

T1 sequence (P19711 3270-3988): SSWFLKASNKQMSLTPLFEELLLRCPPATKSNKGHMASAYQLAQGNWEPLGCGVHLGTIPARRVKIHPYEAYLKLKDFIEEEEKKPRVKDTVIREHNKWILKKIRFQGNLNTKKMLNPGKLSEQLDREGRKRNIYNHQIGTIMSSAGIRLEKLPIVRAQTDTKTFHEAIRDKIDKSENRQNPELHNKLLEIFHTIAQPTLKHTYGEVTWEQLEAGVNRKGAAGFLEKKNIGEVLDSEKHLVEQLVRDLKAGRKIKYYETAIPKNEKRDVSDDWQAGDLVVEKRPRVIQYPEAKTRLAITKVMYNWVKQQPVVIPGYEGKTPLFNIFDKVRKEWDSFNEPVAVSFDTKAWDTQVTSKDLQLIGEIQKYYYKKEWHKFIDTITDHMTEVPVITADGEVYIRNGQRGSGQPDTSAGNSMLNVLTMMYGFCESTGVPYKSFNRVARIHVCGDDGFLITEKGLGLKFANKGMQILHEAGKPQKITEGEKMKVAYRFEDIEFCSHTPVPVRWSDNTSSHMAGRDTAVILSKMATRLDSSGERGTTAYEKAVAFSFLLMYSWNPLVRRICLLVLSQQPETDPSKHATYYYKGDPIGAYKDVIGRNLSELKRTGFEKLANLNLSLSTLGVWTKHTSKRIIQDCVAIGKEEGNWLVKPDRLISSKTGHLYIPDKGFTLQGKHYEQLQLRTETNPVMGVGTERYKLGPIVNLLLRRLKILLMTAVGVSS

SMILES	IC50 [1] [µM]	melting point	IC50 [2, 3] [µM]	IC50 ([2]; read-out: IC50 for HCV RdRp) [µM]
Cc1cnoc1C(O)=C1SC(=S)NC1=O [Compound I-27, 5-[1-Hydroxy-1-(4-methylisoxazol-5-yl)]methylene-2-thioxothiazolidin-4-one]	74.3	230 to 234 °C (dec.)	6.6	–
O=C1NC(=S)S/C1=C(/O)c1ccco1 [Compound I-2, 5-[1-(Furan-2-yl)-1-hydroxy]methylene-2-thioxothiazolidin-4-one]	79.2	230 to 235 °C (dec.)	3.96	–
O=C1NC(=S)SC1=C(O)c1ccccn1 [Compound I-37, 5-[1-Hydroxy-1-(pyridin-2-yl)]methylene-2-thioxothiazolidin-4-one]	151	> 250 °C (dec.)	12.6	–
O=C1NC(=S)SC1=C(O)c1cnccn1 [Compound I-36, 5-[1-Hydroxy-1-(pyrazin-2-yl)]methylene-2-thioxothiazolidin-4-one]	159	> 250 °C (dec.)	31.8	–
O=C1NC(=S)SC1=C(O)c1ccno1 [Compound I-30, 5-[1-(Isoxazol-5-yl)1-hydroxy]methylene-2-thioxothiazolidin-4-one]	140	195 to 202 °C (dec.)	29.8	–
Cc1nnc(C(O)=C2SC(=S)NC2=O)o1 [Compound I-40, 5-[1-Hydroxy-1-(5-methyl-1,3,4-oxadiazol-2-yl)]methylene-2-thioxothiazolidin-4-one]	21.8	230 to 237 °C (dec.)	8.22	–
O=C1NC(=S)SC1=C(O)c1ncccn1 [Compound I-35, 5-[1-Hydroxy-1-(pyrimidin-2-yl)]methylene-2-thioxothiazolidin-4-one]	142	> 250 °C (dec.)	5.85	–
O=C1NC(=S)SC1=C(O)c1ccon1 [Compound I-29, 5-[1-(Isoxazol-3-yl)1-hydroxy]methylene-2-thioxothiazolidin-4-one]	118	210 to 215 °C (dec.)	7.89	–
O=C1NC(=S)SC1=C(O)c1nn[nH]n1 [Compound I-32, 5-[1-Hydroxy-1-(2H-tetrazol-5-yl)]methylene-2-thioxothiazolidin-4-one]	161	188 to 193 °C (dec.)	14	–
Cc1ccc(C(O)=C2SC(=S)NC2=O)o1 [Compound I-22, 5-[1-Hydroxy-1-(5-methylfuran-2-yl)]methylene-2-thioxothiazolidin-4-one]	153	195 to 198 °C (dec.)	20.3	–
Cc1cnc(/C(O)=C2\SC(=S)NC2=O)o1 [Compound I-1, 5-[1-Hydroxy-1-(5-methyloxazol-2-yl)]methylene-2-thioxothiazolidin-4-one]	10.3	243 to 245 °C (dec.)	–	1.03
O=C1NC(=S)SC1=C(O)c1nc[nH]n1 [Compound I-34, 5-[1-Hydroxy-1-(1H-1,2,4-triazol-3-yl)]methylene-2-thioxothiazolidin-4-one]	61.3	285 to 290 °C (dec.)	4.03	–
